The values below come from ChEMBL document CHEMBL5291721, “A preclinical secondary pharmacology resource illuminates target-adverse drug reaction associations of marketed drugs” (Nat Commun, 2023).

Experiment [1] concerns the target T1, Estrogen receptor (Homo sapiens, UniProt P03372).
T1 sequence (P03372 whole entry): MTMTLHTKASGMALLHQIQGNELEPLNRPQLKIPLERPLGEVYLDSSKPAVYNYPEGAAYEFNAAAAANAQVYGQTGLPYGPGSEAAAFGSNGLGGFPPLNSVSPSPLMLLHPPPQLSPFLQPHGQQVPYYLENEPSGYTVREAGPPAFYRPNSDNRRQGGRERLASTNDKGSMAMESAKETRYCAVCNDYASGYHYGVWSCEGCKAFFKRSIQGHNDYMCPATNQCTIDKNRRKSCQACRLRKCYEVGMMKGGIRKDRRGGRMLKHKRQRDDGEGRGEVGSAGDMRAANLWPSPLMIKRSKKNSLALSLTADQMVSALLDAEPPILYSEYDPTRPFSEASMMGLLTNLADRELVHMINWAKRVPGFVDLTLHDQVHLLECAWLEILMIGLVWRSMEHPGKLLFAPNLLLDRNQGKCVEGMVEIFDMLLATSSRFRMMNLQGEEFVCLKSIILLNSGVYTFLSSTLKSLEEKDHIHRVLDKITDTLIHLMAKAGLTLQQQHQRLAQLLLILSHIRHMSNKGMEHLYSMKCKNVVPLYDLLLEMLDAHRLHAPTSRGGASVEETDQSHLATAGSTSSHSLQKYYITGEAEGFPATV
In kind it is functional.

The target of experiment [2] is T2, Androgen receptor (Homo sapiens, UniProt P10275).
T2 sequence (P10275 whole entry): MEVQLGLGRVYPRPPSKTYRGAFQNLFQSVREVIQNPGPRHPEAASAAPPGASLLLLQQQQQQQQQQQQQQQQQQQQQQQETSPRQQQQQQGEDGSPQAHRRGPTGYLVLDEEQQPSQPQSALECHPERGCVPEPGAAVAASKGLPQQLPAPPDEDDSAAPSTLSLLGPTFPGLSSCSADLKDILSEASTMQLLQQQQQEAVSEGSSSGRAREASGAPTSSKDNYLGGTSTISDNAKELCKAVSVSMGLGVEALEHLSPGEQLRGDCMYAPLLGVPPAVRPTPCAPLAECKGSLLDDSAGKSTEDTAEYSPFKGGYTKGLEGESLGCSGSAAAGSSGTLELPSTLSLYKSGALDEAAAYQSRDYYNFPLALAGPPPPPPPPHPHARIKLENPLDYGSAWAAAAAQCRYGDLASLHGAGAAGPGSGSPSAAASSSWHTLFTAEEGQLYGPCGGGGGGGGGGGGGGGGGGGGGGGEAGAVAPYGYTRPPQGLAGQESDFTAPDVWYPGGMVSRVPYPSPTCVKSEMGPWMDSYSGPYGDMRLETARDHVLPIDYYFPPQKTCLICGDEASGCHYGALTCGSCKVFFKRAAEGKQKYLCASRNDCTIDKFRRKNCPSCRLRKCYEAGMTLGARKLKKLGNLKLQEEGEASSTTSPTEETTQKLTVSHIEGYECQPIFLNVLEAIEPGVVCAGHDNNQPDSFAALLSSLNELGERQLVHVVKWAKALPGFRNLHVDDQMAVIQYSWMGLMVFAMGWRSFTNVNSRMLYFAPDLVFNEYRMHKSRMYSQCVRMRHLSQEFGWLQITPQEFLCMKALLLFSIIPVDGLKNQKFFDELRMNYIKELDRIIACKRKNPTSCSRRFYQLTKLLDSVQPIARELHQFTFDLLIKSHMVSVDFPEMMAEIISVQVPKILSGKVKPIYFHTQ

Experiment [3] concerns the target T3, Progesterone receptor (Homo sapiens, UniProt P06401).
T3 sequence (P06401 whole entry): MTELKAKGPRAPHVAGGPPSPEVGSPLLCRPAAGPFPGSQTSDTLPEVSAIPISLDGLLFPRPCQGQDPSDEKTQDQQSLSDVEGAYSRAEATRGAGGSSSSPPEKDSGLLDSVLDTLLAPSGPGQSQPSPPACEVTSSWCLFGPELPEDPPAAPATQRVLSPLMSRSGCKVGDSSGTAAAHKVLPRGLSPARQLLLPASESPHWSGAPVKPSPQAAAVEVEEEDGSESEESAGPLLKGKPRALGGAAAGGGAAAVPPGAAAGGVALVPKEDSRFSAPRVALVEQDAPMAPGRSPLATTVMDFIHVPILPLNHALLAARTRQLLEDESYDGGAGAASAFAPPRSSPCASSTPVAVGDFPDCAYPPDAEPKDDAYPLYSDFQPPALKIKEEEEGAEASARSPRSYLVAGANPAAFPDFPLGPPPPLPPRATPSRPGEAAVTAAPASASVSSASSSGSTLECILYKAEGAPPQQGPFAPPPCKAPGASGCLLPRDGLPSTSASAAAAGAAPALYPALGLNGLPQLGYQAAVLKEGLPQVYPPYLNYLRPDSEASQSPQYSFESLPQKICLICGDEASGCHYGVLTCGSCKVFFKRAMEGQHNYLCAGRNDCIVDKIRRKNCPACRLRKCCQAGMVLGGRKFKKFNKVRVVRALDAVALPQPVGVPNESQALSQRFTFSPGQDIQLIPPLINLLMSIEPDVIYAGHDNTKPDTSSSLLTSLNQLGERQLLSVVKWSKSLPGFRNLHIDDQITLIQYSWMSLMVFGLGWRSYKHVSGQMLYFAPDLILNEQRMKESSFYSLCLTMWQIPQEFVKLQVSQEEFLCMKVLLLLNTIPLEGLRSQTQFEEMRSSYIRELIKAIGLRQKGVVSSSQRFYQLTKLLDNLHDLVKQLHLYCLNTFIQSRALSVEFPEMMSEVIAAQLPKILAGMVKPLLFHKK

Experiment [4] addresses T4, Gastric inhibitory polypeptide receptor (Homo sapiens, UniProt P48546).
T4 sequence (P48546 whole entry): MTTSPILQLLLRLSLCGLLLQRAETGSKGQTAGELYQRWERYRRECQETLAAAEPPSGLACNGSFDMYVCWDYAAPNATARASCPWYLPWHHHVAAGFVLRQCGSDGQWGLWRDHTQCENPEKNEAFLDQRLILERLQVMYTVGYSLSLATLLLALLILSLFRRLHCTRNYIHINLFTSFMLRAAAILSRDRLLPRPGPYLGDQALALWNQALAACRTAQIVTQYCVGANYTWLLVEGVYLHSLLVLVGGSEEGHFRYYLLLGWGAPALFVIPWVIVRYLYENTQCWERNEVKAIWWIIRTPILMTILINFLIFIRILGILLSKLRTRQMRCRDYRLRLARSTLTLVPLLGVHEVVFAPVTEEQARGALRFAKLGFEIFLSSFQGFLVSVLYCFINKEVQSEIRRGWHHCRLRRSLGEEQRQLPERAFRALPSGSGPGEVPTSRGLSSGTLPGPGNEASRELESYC
Note: assay procedure not described here.

Broadly, the AC50 is the concentration at which the activity in the assay is half-maximal. `CN(C)CCC=C1c2ccccc2C(C)(C)c2ccccc21` displayed an AC50 in experiment [1] of more than 30 µM.
The compound `O=C1Nc2ccc(Cl)cc2[C@@](C#CC2CC2)(C(F)(F)F)O1` [EFAVIRENZ] returned a half-maximal activity concentration (AC50) in experiment [1] of more than 30 µM.
For the compound `O=C(OCC(O)CO)c1ccccc1Nc1ccnc2cc(Cl)ccc12` (stereo unspecified) [GLAFENINE], the figures for the AC50 in experiment [2] and in experiment [1] were more than 30 µM and more than 10 µM, respectively.
Consider `c1ccc([C@H]2CN3CCSC3=N2)cc1` [LEVAMISOLE], for which the concentration at half-maximal activity (AC50) in experiment [3] and in experiment [1] was more than 30 µM each time.
In experiment [1], `C[C@H]1CNCCc2ccc(Cl)cc21` [LORCASERIN] showed an AC50 of more than 30 µM.
As for `CNC1Cc2ccccc2N(C)c2ccccc21` (stereo unspecified) [METAPRAMINE], the AC50 in experiment [1] was more than 30 µM.
In experiment [1], `COc1ccc(CC(C)(C)NC[C@H](O)c2cc(O)cc3c2OCC(=O)N3)cc1` [OLODATEROL] yielded an AC50 of more than 30 µM.
For `CCCN1C[C@H](CSC)C[C@@H]2c3cccc4[nH]cc(c34)C[C@H]21` [PERGOLIDE], the AC50 in experiment [3], in experiment [4] and in experiment [1] was more than 30 µM in each case.
In the case of `C1CCC(C(CC2CCCCN2)C2CCCCC2)CC1` (stereo unspecified) [PERHEXILINE], the AC50 in experiment [1] is more than 30 µM.
Turning to `c1cnc(N2CCN(Cc3ccc4c(c3)OCO4)CC2)nc1` [PIRIBEDIL], the AC50 in experiment [1] is more than 30 µM.
Regarding `Cc1c(C(=O)NN2CCCCC2)nn(-c2ccc(Cl)cc2Cl)c1-c1ccc(Cl)cc1` [RIMONABANT], the AC50 in experiment [3], in experiment [4] and in experiment [1] was more than 30 µM in each case.
For `Cn1nnc2c(C(N)=O)ncn2c1=O` [TEMOZOLOMIDE], the AC50 in experiment [3], in experiment [4] and in experiment [1] was more than 30 µM in each case.
For the compound `N[C@@H]1[C@H]2CN(c3nc4c(cc3F)c(=O)c(C(=O)O)cn4-c3ccc(F)cc3F)C[C@@H]12` [TROVAFLOXACIN], the AC50 in experiment [1] was more than 30 µM.
